Like-named read-outs stand apart in the source and are kept apart here.
Assays:
Cp149 [1] = target: T1, Cp149 (Hepatitis B virus genotype D subtype adw, UniProt P03147); set-up: method as in PMID 31712213; conditions: read-out: previously reported dissociation constant (KD); cited from earlier work
T1 construct: The N-terminal domain of Cp (Cp149) is sufficient for forming regular capsids; made in house; host or cells: E. coli BL21(DE3)

Cp149 capsid assembly [2] = target: T2, Cp149 capsid assembly (Hepatitis B virus genotype D subtype adw, UniProt P03147); test: Size exclusion chromatography of Cp149 assembly; assay type: biochemical; conditions: 20 μM Cp149, 40 μM CAM, 500 mM NaCl, 1 h, 37 °C
T2 construct: The N-terminal domain of Cp (Cp149) is sufficient for forming regular capsids; made in house; host or cells: E. coli BL21(DE3)
T2 sequence (P03147 1-149): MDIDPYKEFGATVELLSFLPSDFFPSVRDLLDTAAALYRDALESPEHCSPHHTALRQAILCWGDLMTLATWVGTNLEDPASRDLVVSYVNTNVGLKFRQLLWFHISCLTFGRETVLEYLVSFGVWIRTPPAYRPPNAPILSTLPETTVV
Experimental: The Cp149 protein solution and the compound solution were initially mixed in concentrations of 40 μM Cp149 and 80 μM compound and incubated for 1 h at 37 °C to allow the compound to bind to the protein. The NaCl solution was then added to the incubated mixture to final concentrations of 20 μM Cp149, 40 μM compound, and 500 mM NaCl to initiate the assembly of Cp149. This mixture was incubated at 37 °C for 1 h. Finally, […] of the sample was analyzed using a hand-poured Superose 6 column, at the flow rate of 0.4 mL/min, and the isocratic mobile phase was 50 mM HEPES (pH 7.5).

Cp149 capsid assembly [3] = target: T2, Cp149 capsid assembly; test: Transmission electron microscopy of assembled Cp149 products; assay type: biochemical; conditions: 20 μM Cp149, 40 μM compound
Experimental: The assembled samples of Cp149 were prepared as described in the Size Exclusion Chromatography section. Eight μL of each sample was added onto the 300 mesh Lacey Formvar carbon–copper grids (Ted Pella, Inc.) and allowed to sit for 1.5 min. The grid was then rinsed in 500 mL of deionized water for 10 s twice to rinse off the extra buffer on the grid. After drying, the sample was stained with 8 μL of 2% uranyl acetate for 1 min. After removal and drying of the uranyl acetate solution, the sample was imaged with a Hitachi HT7700 electron microscope at an accelerating voltage of 120 kV, at the IMat Materials Characterization Facility of Georgia Institute of Technology. The images underwent processing using ImageJ software. Initially, to minimize noise, a Gaussian blur filter was applied. These images were then converted into an 8 bit binary format for edge detection. ImageJ identified particles ranging in size from 800 to 2000 pixels. An example of a processed image can be seen in Figure S14. The circularity of each particle was calculated using the formula circularity = 4π × area × perimeter^–2. […] A total of four images, each containing a minimum of 100 capsids, were analyzed to determine the proportion of the abnormal capsids. The entire experiment was duplicated, and the outcomes from both sets were then averaged.

[4] = MTT cytotoxicity, CEM cells; assay type: cell-based, human; conditions: human, T lymphoblast CEM-CCRF (CEM) cells
Experimental: (§1) Human peripheral blood mononuclear (PBM), T lymphoblast CEM-CCRF (herein referred to as CEM cells), African green monkey kidney (Vero), or human liver carcinoma (HepG2) cells were tested via MTT assay using the CellTiter 96 Non-Radioactive Cell Proliferation (Promega) kit as previously described.[63]

[5] = MTT cytotoxicity, PBM cells; assay type: cell-based, human; conditions: human, peripheral blood mononuclear (PBM) cells
Experimental: as §1

[6] = MTT cytotoxicity, four cell lines taken together; assay type: cell-based; conditions: human, African green monkey; PBM, CEM, Vero, HepG2; read-out: CC50 in all cell lines
Experimental: as §1

[7] = tested on: HBV DNA replication in HepAD38 cells; test: HBV DNA replication inhibition assay in HepAD38 cells (7 days, PCR of supernatant DNA); assay type: cell-based, hepatitis B virus; conditions: Hepatitis B virus
Experimental: HepAD38 cells were seeded at 50,000 cells/well in collagen-coated 96-well plates. […] The experiment lasted 7 days. On day 7, total DNA was purified from the supernatant using a commercially available kit (DNeasy 96 Blood & Tissue kit, Qiagen). The HBV DNA was amplified in a polymerase chain reaction assay using LightCycler 480 II (Roche), as previously described.[63] All samples were tested in duplicate.

[8] = MTT cytotoxicity, Vero cells; assay type: cell-based, African green monkey; conditions: African green monkey, Vero cells (kidney)
Experimental: as §1

[9] = MTT cytotoxicity, HepG2 cells; assay type: cell-based, human; conditions: human, HepG2 cells (liver carcinoma)
Experimental: as §1

[10] = tested on: human peripheral blood mononuclear (PBM) cells; test: MTT cytotoxicity, PBM cells; assay type: cell-based; conditions: 100 µM
Experimental: as §1

[11] = tested on: PBM, CEM, Vero and HepG2 cells; test: MTT cytotoxicity, four cell lines taken together; assay type: cell-based
Experimental: as §1

[12] = MTS cytotoxicity (Table S4)
Cp149 [13] = target: T1, Cp149; test: Tryptophan fluorescence titration; assay type: binding; conditions: 20 μM Cp149, compound up to 100 μM
Experimental: Each of the compounds was titrated into 100 μL of the protein solution to final concentrations of 0, 5, 10, 20, 50, and 100 μM in a clear bottom 96-well plate. […] Tryptophan fluorescence levels were measured by exciting the samples at 285 nm and measuring the emission at 340 nm with the Varioskan Flash (Thermo Fisher) plate reader. […] Fluorescence quenching was calculated by taking the difference of net fluorescence levels of each concentration and of the 0 μM sample. All the samples were run in triplicate, and the results were averaged. The dissociation constants (KD) were fitted by the one-site-specific binding model of GraphPad.[45]

[14] = tested on: African green monkey kidney (Vero) cells; test: MTT cytotoxicity, Vero cells; assay type: cell-based; conditions: Vero cells, 100 µM
Experimental: as §1

[15] = tested on: human liver carcinoma (HepG2) cells; test: MTT cytotoxicity, HepG2 cells; assay type: cell-based; conditions: HepG2 cells, 100 µM
Experimental: as §1

[16] = HepAD38 cells, 10 μM, trial 1, read-out: % HBV DNA Inh. at 10 μM, trial 1

T1 sequence (P03147 1-149): as above

C#CCNC(=O)C(=O)c1c(C)c(C(=O)Nc2ccc(F)c(F)c2)n(C)c1C [GLP-26]
Kd (Cp149 [1]): 0.7 µM

CCOC(=O)C1=C(CN2CCOCC2)NC(c2nccs2)=NC1c1ccc(F)cc1Br (centres unmarked) [GLS4, reference compound]
effect on distribution of dimers and capsids / capsid size (SEC) (Cp149 capsid assembly [2]): strong enhancement of assembly
effect on capsid morphology (TEM) (Cp149 capsid assembly [3]): strong misdirecting effects

Cc1cc2nc(-c3ccccn3)c(-c3ccccn3)nc2cc1C [GT-5]
CC50 [4]: > 100 µM
CC50 [5]: > 100 µM
CC50 [6]: > 100 µM
inhibition at 10 µM ([7]; HepAD38 cells, 10 µM, first round of selected compounds, read-out: HBV DNA inhibition (%) at 10 µM): 24.7%
inhibition at 10 µM [7, 16]: 24%
CC50 [8]: > 100 µM
CC50 [9]: > 100 µM

CCn1ccnc1-c1c(-c2ccccc2)ncn1CCCc1cccnc1 [GT-39]
CC50 [4]: 16 µM
CC50 [5]: > 100 µM
percent cytotoxicity (cell growth inhibition) at 100 µM [10]: 22%
toxicity in at least one cell line tested [11]: 16 to 18 µM
MTS cytotoxicity, % Inh. at 200 µM [12]: < 1%
tryptophan fluorescence quenching (Cp149 [13]): reproducible but modest fluorescence quenching
inhibition at 200 µM ([7]; HePAD38, 200 µM, additional testing, Table S4, read-out: Anti-HBV activity in HepAD38 cells, % Inh. at 200 µM ± SD): 39.1 ± 1.5%
EC50 ([7]; HePAD38, additional testing, Table S4, read-out: Anti-HBV activity in HepAD38 cells, EC50): > 200 µM
inhibition at 10 µM [7, 16]: 57%
inhibition at 10 µM ([7]; HepAD38 cells, 10 μM, trial 2, read-out: % HBV DNA Inh. at 10 μM, trial 2): 50%
inhibition at 10 µM ([7]; HepAD38 cells, 10 µM, trial 3, read-out: % HBV DNA Inh. at 10 µM, trial 3): < 1%
inhibition at 10 µM ([7]; HepAD38 cells, 10 µM, trial 4, read-out: % HBV DNA Inh. at 10 µM, trial 4): 36%
inhibition at 10 µM ([7]; HepAD38 cells, 10 μM, read-out: % inhibition in at least one of the trials): > 50%
EC50 ([7]; HepAD38 cells, trial 1, read-out: EC50, trial 1): < 10 µM
EC50 ([7]; HepAD38 cells, trial 2, read-out: EC50, trial 2): 10 µM
EC50 ([7]; HepAD38 cells, trial 3, read-out: EC50, trial 3): > 10 µM
EC50 ([7]; HepAD38 cells, trial 4, read-out: EC50, trial 4): > 100 µM
IC50 (in vitro): > 200 µM
% cytotoxicity (MTT) at 100 µM [14]: 47%
CC50 [8]: > 100 µM
effect on capsid morphology (TEM) (Cp149 capsid assembly [3]): induced misdirected products
% abnormal capsids, Trial 1 (Cp149 capsid assembly [3]; 500 mM NaCl): 45%
% abnormal capsids, Trial 2 (Cp149 capsid assembly [3]; 500 mM NaCl): 36%
CC50 [9]: > 100 µM
percent cytotoxicity (MTT) at 100 µM, HepG2 [15]: 32%

From PMC11019538, “Biophysics-Guided Lead Discovery of HBV Capsid Assembly Modifiers” (ACS Infectious Diseases, 2024)
